Data on one compound can be found in patent US10011589B2, “Treatments for gastrointestinal conditions” (BOARD OF REGENTS, THE UNIVERSITY OF TEXAS SYSTEM, priority 2014, dated 2018).

In brackets after ≈: the same amount, converted by molar mass. Where only a bound is given, the exact number is not on record here.

Data set [1] deals with C. difficile strains R20291 and BAA-1875. Description: MIC testing against C. difficile strains R20291 and BAA-1875. The class given is cell-based, Clostridium difficile. The note with it: Clostridioides difficile, BAA1875; C. difficile R20291 and BAA-1875 (FIG. 8); 24 h, 37° C., anaerobic. On the procedure:
The synthesized compounds were initially tested against four virulent C. difficile strains: CD1803 (toxinotype III, 95 NAP1), CD1875 (toxinotype V, NAP7), R20291 (ribotype 027—from A. Sonenshein, Tufts University, USA), and BAA-1875 (ribotype 078, from American Type Culture Collection-ATCC). The activities (i.e. Minimum Inhibitory Concentrations-MICs) of test compounds were determined in 24 or 96 well microtitre plates using bacterial inocula of 10^6 cfu/mL and were defined as the lowest concentration of test compound that inhibited visible growth after 24 h of incubation at 37° C. in an A35 anaerobic chamber (Don-Whitley).

The test system of data set [2] is C. difficile strain ATCC 43596. Description: MIC against infecting strain ATCC 43596. Type of data set: cell-based, Clostridium difficile. The following applies: Clostridioides difficile, ATCC43596.
A further data set has as its system Caco-2 monolayer. Description: Caco-2 cell permeability assay. Type of data set: in vitro ADME. The note with it: apical to basolateral. On the procedure:
The permeability co-efficient (Papp A-B) of the compounds were calculated and the ability of compounds to move from the apical to the basolateral side of Caco-2 monolayer is shown in FIG. 16.
(In general: Caco-2 monolayers are a common model of the intestinal barrier.)

The subject of data set [3] is C. difficile strain ATCC 43596. Description: Hamster model of CDI (efficacy). The class given is in vivo, Golden Syrian hamsters. The note with it: 50 mg/kg once daily, days 1 to 5, oral. On the procedure: Golden Syrian hamsters (˜100 g) from Charles River Laboratories were separately housed in sterile cages and maintained on sterile food and water. On day −1, animals were subcutaneously injected with clindamycin phosphate solution (50 mg/kg, from Hospira). After 20 h (day 0), hamsters were infected by oral gavage with 10^6 cfu of the C. difficile strain ATCC 43596 grown in Sporulation Medium and washed once with pre-reduced PBS; 15. […] After 5 days of treatment, surviving hamsters were monitored for up to 30 days for signs of disease as described by Anton et al. All moribund animals were euthanized, as well as those that survived the post-treatment monitoring period (30 days); ceca were recovered from all animals. All animal experiments were approved by The Institutional Animal Care and Use Committee of The University of Texas at Arlington.

Data set [4] in a line: Pharmacokinetic study in hamsters, plasma. The class given is in vivo. The following applies: male, Syrian, po, hamster, 100 mg/kg in PEG-400:water (85:15). On the procedure:
Pharmacokinetic studies were assessed in male Syrian hamsters (˜100 g), from Charles-River, with each carrying a pre-implanted jugular vein cannula. Hamsters (n=5 per group) were fasted overnight and for the duration of the experiment (7 h). After collecting pre-dose blood samples (200 μL), animals were dosed with 100 mg/kg of compounds formulated in PEG-400:water (85:15). At various time points blood samples were collected into heparinized coated tubes that were centrifuged at 3000 rpm for 10 min to yield plasma, which was stored at −20° C. After dosing animals (n=3 per time point) as above, animals were humanely sacrificed at time points and their cecal contents collected and stored at −20° C. For plasma samples, 25 μL of plasma was placed in 384-well analytical plate and quenched by the addition of 50 μL of acetonitrile containing 4 mg/L warfarin as an internal standard. The plate was sealed, shaken at 600 rpm for 10 min, and then was centrifuged at 4000 rpm for 20 min. 15 μL of the supernatant was transferred to a new analytical 96-well plate and mixed with 100 μL of MilliQ water. The samples were analyzed by injecting 5 μL onto a Waters UPLC/SQD LC-MS/MS system. The cecal samples were processed by adding 100 μL of acetonitrile containing 4 mg/L of warfarin (internal standard) to the microfuge tubes containing cecal matter (˜50 mg). The suspension was vortexed for 10 sec, sonicated for 1 min and then centrifuged at 10,000 rpm for 10 min. Aliquots (50 μL) of the collected supernatants were then transferred to a 384-well plate and analyzed by high resolution mass spectroscopy using Waters XEVO QTOF LCMS.

Data set [5] deals with Clostridium difficile infection. The note with it: severe CDI; cited from earlier work.

In general, MIC refers to the smallest concentration in the dilution series that meets the test's criterion for growth inhibition. Low readings indicate inhibition by little substance, high ones a need for much substance. In general, Cmax refers to the peak of the concentration-time curve. What is called Tmax is the time at which the peak concentration occurs. Broadly, the AUC is concentration integrated over time.

`Cc1ncc([N+](=O)[O-])n1CCO` [metronidazole, reference compound] displayed an MIC in data set [1] of 0.25 µg/mL (≈ 1.46 µM). Further, the MIC in data set [2] was determined as 0.125 µg/mL (≈ 0.73 µM). In addition, in the data set with Caco-2 monolayer, the “Caco-2 permeation in words” value is on record as “highly permeable”. In addition, the “survival, maximum days post-infection” value in data set [3] is on record as no more than 10 days. Besides, in data set [4], the Cmax was determined as 51 µg/mL and the Tmax was found to be 1 h. Further, the AUC in data set [4] (read-out: total exposure (AUC) in plasma) worked out at 135 µg·h/mL. Moreover, the “patients relapsing following therapy” value in data set [5] is given as “more than 25%”.
